Biological target: T1, JAK2 (JH1domain-catalytic, Y1007F,Y1008F) kinase (Homo sapiens, UniProt O60674, Y1007F/Y1008F)
T1 construct: JAK2 (JH1domain-catalytic, Y1007F,Y1008F) kinase was expressed as N-terminal fusion; made in house; host or cells: transiently transfected HEK293 cells
Experiment: JAK2 JH1 Domain Binding Assay
Settings: qPCR readout

T1 sequence (O60674 849-1124 Y1007F/Y1008F limits assumed): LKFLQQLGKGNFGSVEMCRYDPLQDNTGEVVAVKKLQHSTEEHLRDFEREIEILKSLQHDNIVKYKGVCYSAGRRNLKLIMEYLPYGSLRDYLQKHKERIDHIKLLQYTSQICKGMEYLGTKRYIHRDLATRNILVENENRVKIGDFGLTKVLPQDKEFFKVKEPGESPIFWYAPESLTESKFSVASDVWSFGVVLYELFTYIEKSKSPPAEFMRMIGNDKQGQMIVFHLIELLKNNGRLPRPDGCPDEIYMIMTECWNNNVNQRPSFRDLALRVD

SMILES	Kd [nM]
CN(C)[C@@H]1CCN(Cc2cc(Nc3nc4ncc(Oc5cnn6ccncc56)c(Cl)c4n3C)cc(C(F)(F)F)c2)C1 [Example I-271, (R)-7-chloro-N-(3-((3-(dimethylamino)pyrrolidin-1-yl)methyl)-5-(trifluoromethyl)phenyl)-1-methyl-6-(pyrazolo[1,5-a]pyrazin-3-yloxy)-1H-imidazo[4,5-b]pyridin-2-amine]	< 10
COCCOc1nccn2ncc(Oc3cnc4nc(Nc5cc(C(F)(F)F)n(C6CC7(COC7)C6)n5)n(C)c4c3Cl)c12 [Example I-273, N-(1-(2-oxaspiro[3.3]heptan-6-yl)-5-(trifluoromethyl)-1H-pyrazol-3-yl)-7-chloro-6-((4-(2-methoxyethoxy)pyrazolo[1,5-a]pyrazin-3-yl)oxy)-1-methyl-1H-imidazo[4,5-b]pyridin-2-amine]	10 to 50
CN(C)c1cc(Nc2nc3ncc(Oc4cnn5ccncc45)c(Cl)c3n2C)cc(C(F)(F)F)n1 [Example I-274, N^4-(7-chloro-1-methyl-6-(pyrazolo[1,5-a]pyrazin-3-yloxy)-1H-imidazo[4,5-b]pyridin-2-yl)-N^2,N^2-dimethyl-6-(trifluoromethyl)pyridine-2,4-diamine]	10 to 50
CNc1nccn2ncc(Oc3cnc4nc(Nc5cc(OCC6CN(C)C6)cc(C(F)(F)F)c5)n(C)c4c3Cl)c12 [Example I-275, 7-chloro-1-methyl-6-((4-(methylamino)pyrazolo[1,5-a]pyrazin-3-yl)oxy)-N-(3-((1-methylazetidin-3-yl)methoxy)-5-(trifluoromethyl)phenyl)-1H-imidazo[4,5-b]pyridin-2-amine]	10 to 50
CNc1nccn2ncc(Oc3cnc4nc(Nc5cc(C(F)(F)F)n([C@@H]6CCOC6)n5)n(C)c4c3Cl)c12 [Example I-276, (R)-7-chloro-1-methyl-6-((4-(methylamino)pyrazolo[1,5-a]pyrazin-3-yl)oxy)-N-(1-(tetrahydrofuran-3-yl)-5-(trifluoromethyl)-1H-pyrazol-3-yl)-1H-imidazo[4,5-b]pyridin-2-amine]	10 to 50
Cn1c(Nc2cc(CN3CCCC3)cc(C(F)(F)F)c2)nc2ncc(Oc3cnn4ccncc34)c(Cl)c21 [Example I-277, 7-chloro-1-methyl-6-(pyrazolo[1,5-a]pyrazin-3-yloxy)-N-(3-(pyrrolidin-1-ylmethyl)-5-(trifluoromethyl)phenyl)-1H-imidazo[4,5-b]pyridin-2-amine]	< 10
CC(=O)N1CC2(CC(n3nc(Nc4nc5ncc(Oc6cnn7ccccc67)c(Cl)c5n4C)cc3C(F)(F)F)C2)C1 [Example I-278, 1-(6-(3-((7-chloro-1-methyl-6-(pyrazolo[1,5-a]pyridin-3-yloxy)-1H-imidazo[4,5-b]pyridin-2-yl)amino)-5-(trifluoromethyl)-1H-pyrazol-1-yl)-2-azaspiro[3.3]heptan-2-yl)ethan-1-one]	< 10
Cn1cc(C(F)(F)F)cc(Nc2nc3ncc(Oc4cnn5ccc(N6CCOCC6)cc45)c(C#N)c3n2C)c1=O [Example I-281, 1-methyl-2-((1-methyl-2-oxo-5-(trifluoromethyl)-1,2-dihydropyridin-3-yl)amino)-6-((5-morpholinopyrazolo[1,5-a]pyridin-3-yl)oxy)-1H-imidazo[4,5-b]pyridine-7-carbonitrile]	< 10
CNc1nccn2ncc(Oc3cnc4nc(Nc5cc(CN6CC[C@@H](N(C)C)C6)cc(C(F)(F)F)c5)n(C)c4c3Cl)c12 [Example I-282, (R)-7-chloro-N-(3-((3-(dimethylamino)pyrrolidin-1-yl)methyl)-5-(trifluoromethyl)phenyl)-1-methyl-6-((4-(methylamino)pyrazolo[1,5-a]pyrazin-3-yl)oxy)-1H-imidazo[4,5-b]pyridin-2-amine]	10 to 50
CN(C)[C@@H]1CCN(Cc2cc(C(F)(F)F)cc(Nc3nc4ncc(Oc5cnn6ccncc56)c(Cl)c4n3C)c2F)C1 [Example I-283, (R)-7-chloro-N-(3-((3-(dimethylamino)pyrrolidin-1-yl)methyl)-2-fluoro-5-(trifluoromethyl)phenyl)-1-methyl-6-(pyrazolo[1,5-a]pyrazin-3-yloxy)-1H-imidazo[4,5-b]pyridin-2-amine]	10 to 50

— patent US12043632B2, “6-heteroaryloxy benzimidazoles and azabenzimidazoles as JAK2 inhibitors” (Ajax Therapeutics, Inc., priority 2020, dated 2024)
